Molecules are shown by their SMILES.

This note sets out measurements from patent publication US20250000834A1, “COMPOSITIONS AND METHODS FOR TARGETING GPCR FOR THE PREVENTION AND TREATMENT OF PAIN” (Duke University, priority 2021, published 2025).

One test has as its target T1, hGPR37L1 (Homo sapiens, UniProt O60883).
T1 sequence (O60883 26-481): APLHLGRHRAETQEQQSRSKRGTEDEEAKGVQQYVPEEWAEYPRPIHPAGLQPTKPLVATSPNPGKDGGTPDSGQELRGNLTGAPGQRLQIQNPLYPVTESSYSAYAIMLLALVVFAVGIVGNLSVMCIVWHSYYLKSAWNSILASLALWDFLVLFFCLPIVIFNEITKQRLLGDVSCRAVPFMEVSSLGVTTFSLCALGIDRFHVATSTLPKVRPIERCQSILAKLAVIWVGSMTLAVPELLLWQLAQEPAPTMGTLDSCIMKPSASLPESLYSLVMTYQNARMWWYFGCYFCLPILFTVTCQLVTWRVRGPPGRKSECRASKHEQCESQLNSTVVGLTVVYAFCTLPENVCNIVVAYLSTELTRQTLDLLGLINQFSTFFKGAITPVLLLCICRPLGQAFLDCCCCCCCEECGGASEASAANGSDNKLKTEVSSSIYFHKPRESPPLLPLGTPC
The experiment in a line: Lipid-coated bead pull-down assay with hGPR37L1-expressing cells. The test is classed as binding. More on the design: expressed in transfected cells; host or cells: HEK293 Flp-In cells. The settings on record: Western blot. Here is the method: Lipid pull-down assay: Isolated membrane proteins were pre-adsorbed to uncoated control agarose beads (Vector Laboratories, Burlingame, CA); the unbound fraction was collected and incubated 24 hrs at 4° C. with lipid-coated agarose beads (S. Bang et al., GPR37 regulates macrophage phagocytosis and resolution of inflammatory pain. J Clin Invest 128, 3568-3582 (2018)). After extensive washing, bound proteins were eluted from the lipid-coated beads, suspended in Laemmli buffer containing 2% SDS (w/v) and 0.3-M β-mercaptoethanol (Sigma-Aldrich, St. Louis, MO), and heated 5 min at 95° C. to dissolve proteins before separation on 4-20% polyacrylamide/SDS gels as outlined above. The lysate proteins were detected by western blot.
Western blot: GPR37L1 proteins were isolated from transfected cells, lipid pull-down beads, and mouse DRG. The cells were placed on ice, washed with ice-cold phosphate-buffered saline (PBS), and harvested with ice-cold RIPA buffer (Sigma-Aldrich, St. Louis, MO) with Protease Inhibitor Cocktail Tablet (pH 7.4) (Roche Diagnostics, Indianapolis, IN). The cell lysates were centrifugated for removing insoluble debris and were calculated by BCA assay for detection of protein level, and the supernatant was mixed with 4× Laemmli buffer (Bio-Rad, Hercules, CA) and boiling. Protein samples were […] on 4-15% gradient SDS-PAGE gel (Bio-Rad, Hercules, CA) and blotted on PVDF membrane (Bio-Rad, Hercules, CA). Ponceau S staining was used for the detection of total proteins. The primary antibody was incubated with PBS+1% BSA at 4° C. overnight. We used the following primary antibodies: anti-GPR37L1 antibody (Bioss (Woburn, MA), Rabbit, 1:1000, #bs-15390R); anti-GAPDH antibody (Proteintech (Rosemont, IL), mouse, 1:2000, #60004); and anti-flag antibody (Cell Signaling Technologies (Danvers, MA), Rabbit, 1:1000, #14793). Blots were further incubated with an […] secondary anti-rabbit antibody (Jackson ImmunoResearch Laboratories (West Grove, PA), donkey, 1:5000), developed in ECL solution (Pierce Biotechnology, Appleton, WI)), and visualized in ChemiDoc XRS (Bio-Rad, Hercules, CA). Protein signal intensity was quantified by Image J software (NIH).
Next, a lipid-coated bead pull-down assay with hGPR37L1-expressing cells was used to confirm whether MaR1 would interact with GPR37L1 protein selectively. […] The right molecule size of GPR37L1 (˜50 kDa) was also validated by the anti-FLAG antibody (data not shown; see U.S. Prov. No. 63/270,198, FIG. 3E).

For test [1], the system named is Kir4.1 potassium channels in SGCs. Nature of the test: Patch-clamp recordings of K+ currents in SGCs of whole-mount DRG. The format is cell-based, mouse. How it is done:
Patch-clamp recordings in SGCs of whole-mount DRG: Under urethane anesthesia, mice were rapidly euthanized, followed by careful isolation of lumbar DRGs placed in the oxygenated artificial cerebral spinal fluid (aCSF). DRGs were briefly digested (20 min) using an enzymatic mixture consisting of collagenase A (1 mg/mL) and 0.32 mL Trypsin (0.25% original solution). Intact DRG were then incubated in aCSF oxygenated with 95% O2 and 5% CO2 at 34° C. Following incubation, DRG were transferred to a recording chamber. Isolated DRGs were transferred to a recording chamber continuously perfused (˜3 ml/min) with aCSF. SGCs in whole mouse DRGs could be visualized using a 40× water-immersion objective on an Olympus BX51WI microscope (Olympus Corp., Shinjuku, Japan). The round or fusiform-shaped cell bodies of SGCs were small (<10 μm) but visible near the edges of DRG neurons. Patch pipettes (Chase Scientific Glass Inc., Ramsey, MN) were pulled and filled with a pipette solution containing: 126 mM potassium gluconate, 10 mM NaCl, 1 mM MgCl2, 10 mM EGTA, 2 mM Na-ATP, and 0.1 mM Mg-GTP, adjusted to pH 7.3 with KOH. The resistance of pipettes was 10-12 MΩ. A Whole-cell patch-clamp configuration was made on SGCs at room temperature using a Multiclamp 700B amplifier (Axon Instruments, Union City, CA). Under voltage clamp, at a holding potential of −80 mV, inward or outward currents are triggered by voltage steps of −160 to +40 mV, with 20 mV increment in 200 ms (H. Zhang et al., Altered functional properties of satellite glial cells in compressed spinal ganglia. Glia 57, 1588-1599 (2009)). To isolate inwardly rectifying potassium current (Kir), potassium currents from the same cells were recorded in the absence and presence of 100 μM extracellular barium, which blocks the Kir4.1 channel (C. A. Doupnik, et al, The inward rectifier potassium channel family. Curr Opin Neurobiol 5, 268-277 (1995); X. Tong et al., Astrocyte Kir4.1 ion channel deficits contribute to neuronal dysfunction in Huntington's disease model mice. Nat Neurosci 17, 694-703 (2014)). The Kir4.1 currents were obtained by digitally subtracting those currents in the absence and presence of barium.
Kir4.1 potassium channels are the predominant potassium channels in SGCs and are chiefly responsible for the potassium currents in SGCs. Dysregulation of SGC Kir4.1 contributes to the pathogenesis of pain (M. Hanani, D. C. Spray, Emerging importance of satellite glia in nervous system function and dysfunction. Nat Rev Neurosci 21, 485-498 (2020)). SGC K^+ currents were recorded by conducting patch-clamp recordings in SGCs in whole-mount DRG preparation (data not shown; see U.S. Prov. No. 63/270,198, FIG. 7A), collected from WT mice, Gpr37l1^+/+ mice, and Gpr37l1^+/− mutant mice (FIG. 11A parts A-C).
(In general: In patch-clamp work, channel activity is measured electrically.)

Consider `CC/C=C\C/C=C\C[C@H](O)\C=C/C=C/C=C/[C@H](O)C/C=C\CCC(=O)O` [MaR1, Maresin 1], for which the “GPR37L1 binding in lipid-coated bead pull-down extracts” value on hGPR37L1 was “Strong GPR37L1 binding”. For the same compound, the “effect on PTX-induced downregulation of K+ currents in SGCs” value in test [1] (100 ng/ml co-applied with PTX, Gpr37l1+/+ DRG) is “significantly rescued”. Also, the “effect on K+ currents in SGCs” value in test [1] (100 ng/ml with PTX, Gpr37l1 mutant (Gpr37l1+/−) DRG) is reported as “completely abolished”.
